Reference: US8822517B2, “Arylosulfonamides for the treatment of CNS diseases” (Adamed SP. Z O.O., priority 2010, dated 2014)

Tests used:
[1] = molecular target: T1, serotonine transporter (SERT) receptor (Homo sapiens, UniProt P31645); assay: Binding assay SERT (h), [3H]imipramine, CHO cells; details: read-out: SERT [%]
T1 construct: expressed in transfected cells; host or cells: CHO cells
Method in brief: (§1)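 At 1×10^−6 M, compounds were assessed for their effect on specific radioligand binding, computed as total less nonspecific binding (excess unlabelled ligand present).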

adrenergic α2C receptor [2] = molecular target: T2, adrenergic α2C receptor (Homo sapiens, UniProt P18825); assay: Cellular functional assay, adrenergic α2C receptor (agonism/antagonism); type: cell-based; details: for activation at 1 µM: agonist effect, percent of control specific agonist response, compounds tested at 1×10^−6M, read-out: α2C −ag [%]; for inhibition at 1 µM: read-out: α2C −antag. [%]
T2 sequence (P18825 1-462): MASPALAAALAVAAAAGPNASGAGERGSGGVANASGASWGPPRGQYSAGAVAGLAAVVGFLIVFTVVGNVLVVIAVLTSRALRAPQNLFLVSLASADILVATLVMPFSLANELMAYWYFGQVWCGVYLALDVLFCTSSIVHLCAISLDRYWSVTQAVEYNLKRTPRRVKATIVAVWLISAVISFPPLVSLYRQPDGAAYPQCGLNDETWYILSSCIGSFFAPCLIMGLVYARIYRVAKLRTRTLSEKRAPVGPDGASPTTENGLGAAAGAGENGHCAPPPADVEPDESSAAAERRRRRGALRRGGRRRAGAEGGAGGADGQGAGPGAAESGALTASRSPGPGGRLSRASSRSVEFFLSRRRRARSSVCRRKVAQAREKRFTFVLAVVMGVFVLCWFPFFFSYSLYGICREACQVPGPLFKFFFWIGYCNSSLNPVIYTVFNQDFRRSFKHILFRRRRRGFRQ
Description: (§2) The compounds were tested at the concentration of 1×10^−6M.
(§3) In the Tables ag refers to agonism, and antag to antagonism).

sigma σ receptor = assay: Binding assay σ (non-selective), [3H]DTG, rat cerebral cortex; details: percent inhibition of control specific binding; compounds tested at 1×10^−6 M
Method in brief: as §1

[3] = molecular target: serotoninergic 5-HT2A receptor (Homo sapiens, UniProt P28223); assay: Binding assay 5-HT2A (h), [3H]ketanserin, HEK-293 cells; set-up: expressed in transfected cells; host or cells: HEK-293 cells; details: read-out: 5-HT2A
serotoninergic 5-HT2A receptor, sequence (P28223 whole entry): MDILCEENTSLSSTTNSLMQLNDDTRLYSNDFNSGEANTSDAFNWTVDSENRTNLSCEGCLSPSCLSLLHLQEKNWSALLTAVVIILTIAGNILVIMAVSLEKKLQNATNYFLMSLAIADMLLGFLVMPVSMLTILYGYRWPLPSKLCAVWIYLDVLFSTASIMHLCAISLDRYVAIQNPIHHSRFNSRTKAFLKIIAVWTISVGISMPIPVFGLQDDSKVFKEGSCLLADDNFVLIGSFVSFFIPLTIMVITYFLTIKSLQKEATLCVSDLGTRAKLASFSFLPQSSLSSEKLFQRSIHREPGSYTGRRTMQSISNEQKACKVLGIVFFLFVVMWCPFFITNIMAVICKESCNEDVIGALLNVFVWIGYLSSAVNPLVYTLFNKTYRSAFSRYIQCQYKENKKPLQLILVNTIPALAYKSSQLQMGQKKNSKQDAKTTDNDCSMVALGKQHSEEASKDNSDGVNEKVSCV
Method in brief: as §1

[4] = molecular target: serotoninergic 5-HT6 receptor (Homo sapiens, UniProt P50406); assay: Binding assay 5-HT6 (h), [3H]LSD, CHO cells; set-up: expressed in transfected cells; host or cells: CHO cells; details: read-out: 5-HT6
serotoninergic 5-HT6 receptor, sequence (P50406 whole entry): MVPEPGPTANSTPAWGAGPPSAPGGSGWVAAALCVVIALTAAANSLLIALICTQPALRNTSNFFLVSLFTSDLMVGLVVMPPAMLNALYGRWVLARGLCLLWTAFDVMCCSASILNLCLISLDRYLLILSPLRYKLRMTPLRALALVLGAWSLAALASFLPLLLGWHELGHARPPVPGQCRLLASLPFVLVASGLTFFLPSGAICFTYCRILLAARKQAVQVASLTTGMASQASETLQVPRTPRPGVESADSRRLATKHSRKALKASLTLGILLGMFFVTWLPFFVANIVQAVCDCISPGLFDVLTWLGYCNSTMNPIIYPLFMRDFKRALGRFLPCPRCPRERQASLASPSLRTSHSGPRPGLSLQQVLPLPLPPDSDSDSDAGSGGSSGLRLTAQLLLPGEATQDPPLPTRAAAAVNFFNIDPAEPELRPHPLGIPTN
Method in brief: as §1

dopaminergic D2 receptor = dopaminergic D2 receptor (Homo sapiens, UniProt P14416); assay: Binding assay D2S (h), [3H]methyl-spiperone, HEK-293 cells; set-up: expressed in transfected cells; host or cells: HEK-293 cells; details: read-out: D2 [%]
dopaminergic D2 receptor, sequence (P14416 1-414 isoform P14416-2): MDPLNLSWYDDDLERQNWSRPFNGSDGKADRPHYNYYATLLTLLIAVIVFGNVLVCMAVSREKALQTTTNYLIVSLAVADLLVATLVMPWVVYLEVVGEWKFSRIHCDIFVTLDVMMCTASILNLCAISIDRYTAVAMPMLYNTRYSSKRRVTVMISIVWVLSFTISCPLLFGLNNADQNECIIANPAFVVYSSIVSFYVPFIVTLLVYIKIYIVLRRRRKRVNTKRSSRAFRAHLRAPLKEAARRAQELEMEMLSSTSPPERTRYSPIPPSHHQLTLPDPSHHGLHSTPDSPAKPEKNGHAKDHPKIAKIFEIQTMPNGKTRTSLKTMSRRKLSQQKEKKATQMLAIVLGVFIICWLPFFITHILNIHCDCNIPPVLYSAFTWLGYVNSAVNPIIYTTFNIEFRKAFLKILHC
Method in brief: as §1

adrenergic α1 receptor = assay: Binding assay α1 (non-selective), [3H]prazosin, rat cerebral cortex; details: percent inhibition of control specific binding; compounds tested at 1×10^−6 M
Method in brief: as §1

[5] = molecular target: T3, serotoninergic 5-HT1A receptor (Homo sapiens, UniProt P08908); assay: Binding assay 5-HT1A (h), [3H]8-OH-DPAT, HEK-293 cells; set-up: expressed in transfected cells; host or cells: HEK-293 cells; details: read-out: 5-HT1A
T3 sequence (P08908 1-422): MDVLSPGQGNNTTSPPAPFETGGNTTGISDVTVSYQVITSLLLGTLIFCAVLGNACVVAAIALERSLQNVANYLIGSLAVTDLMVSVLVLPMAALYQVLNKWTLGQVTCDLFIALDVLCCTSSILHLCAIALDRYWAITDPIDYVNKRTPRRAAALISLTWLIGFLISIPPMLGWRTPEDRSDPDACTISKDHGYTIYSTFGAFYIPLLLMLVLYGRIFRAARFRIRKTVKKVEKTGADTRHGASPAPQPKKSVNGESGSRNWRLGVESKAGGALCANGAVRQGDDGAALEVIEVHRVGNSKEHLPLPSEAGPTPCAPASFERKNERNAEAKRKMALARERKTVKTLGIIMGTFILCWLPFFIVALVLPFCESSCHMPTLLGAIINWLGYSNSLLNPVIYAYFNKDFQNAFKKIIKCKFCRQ
Method in brief: as §1

adrenergic α2C receptor [6] = molecular target: T2, adrenergic α2C receptor; assay: Binding assay α2C (h), [3H]RX 821002, CHO cells; set-up: expressed in transfected cells; host or cells: CHO cells; details: read-out: α2C [%]
Method in brief: as §1

[7] = molecular target: serotoninergic 5-HT7 receptor (Homo sapiens, UniProt P34969); assay: Cellular functional assay, serotoninergic 5-HT7 receptor (agonism/antagonism); type: cell-based; details: for activation at 1 µM: agonist effect, percent of control specific agonist response, compounds tested at 1×10^−6M, read-out: 5-HT7-ag [%]; for inhibition at 1 µM: read-out: 5-HT7-antag. [%]
serotoninergic 5-HT7 receptor, sequence (P34969 whole entry): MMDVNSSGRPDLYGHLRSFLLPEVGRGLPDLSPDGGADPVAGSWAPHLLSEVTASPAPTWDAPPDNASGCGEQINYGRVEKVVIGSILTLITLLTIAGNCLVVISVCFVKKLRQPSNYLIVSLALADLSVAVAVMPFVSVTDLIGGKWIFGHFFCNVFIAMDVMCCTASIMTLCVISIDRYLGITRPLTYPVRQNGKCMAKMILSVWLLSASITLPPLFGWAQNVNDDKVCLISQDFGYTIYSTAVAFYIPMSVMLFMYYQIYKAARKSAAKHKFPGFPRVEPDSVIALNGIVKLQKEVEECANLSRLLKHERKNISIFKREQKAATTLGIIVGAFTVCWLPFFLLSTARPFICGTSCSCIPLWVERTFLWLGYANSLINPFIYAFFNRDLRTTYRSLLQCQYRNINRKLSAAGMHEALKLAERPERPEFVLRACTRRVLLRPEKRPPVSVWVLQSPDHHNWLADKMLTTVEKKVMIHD
Description: as §2, §3

dopaminergic D3 receptor = dopaminergic D3 receptor (Homo sapiens, UniProt P35462); assay: Binding assay D3 (h), [3H]methyl-spiperone, CHO cells; set-up: expressed in transfected cells; host or cells: CHO cells; details: read-out: D3 [%]
dopaminergic D3 receptor, sequence (P35462 whole entry): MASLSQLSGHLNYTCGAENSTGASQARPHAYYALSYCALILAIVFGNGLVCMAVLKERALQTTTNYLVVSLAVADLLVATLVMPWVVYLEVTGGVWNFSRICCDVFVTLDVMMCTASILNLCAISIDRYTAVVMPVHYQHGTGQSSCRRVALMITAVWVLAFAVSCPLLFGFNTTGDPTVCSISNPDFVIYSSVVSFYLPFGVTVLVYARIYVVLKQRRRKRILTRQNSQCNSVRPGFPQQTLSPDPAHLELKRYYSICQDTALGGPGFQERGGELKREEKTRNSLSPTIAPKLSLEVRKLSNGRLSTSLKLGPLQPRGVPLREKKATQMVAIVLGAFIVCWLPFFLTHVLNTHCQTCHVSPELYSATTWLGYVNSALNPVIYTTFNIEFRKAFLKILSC
Method in brief: as §1

T1 sequence (P31645 whole entry): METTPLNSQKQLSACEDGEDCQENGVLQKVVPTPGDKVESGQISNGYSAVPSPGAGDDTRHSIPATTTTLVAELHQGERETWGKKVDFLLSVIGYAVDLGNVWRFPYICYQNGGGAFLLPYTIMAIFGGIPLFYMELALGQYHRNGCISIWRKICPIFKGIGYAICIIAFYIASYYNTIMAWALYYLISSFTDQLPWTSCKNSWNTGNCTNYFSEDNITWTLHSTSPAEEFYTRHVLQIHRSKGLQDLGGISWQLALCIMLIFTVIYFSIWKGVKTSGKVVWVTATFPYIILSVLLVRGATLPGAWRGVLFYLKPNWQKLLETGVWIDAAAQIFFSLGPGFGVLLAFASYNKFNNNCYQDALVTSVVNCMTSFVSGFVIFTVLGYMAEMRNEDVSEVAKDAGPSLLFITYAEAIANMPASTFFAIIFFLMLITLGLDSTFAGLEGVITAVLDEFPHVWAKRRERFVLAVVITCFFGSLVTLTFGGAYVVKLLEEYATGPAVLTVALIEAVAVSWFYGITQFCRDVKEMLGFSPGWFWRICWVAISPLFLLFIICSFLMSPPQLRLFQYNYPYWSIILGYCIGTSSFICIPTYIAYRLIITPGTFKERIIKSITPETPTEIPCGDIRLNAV

Structure (SMILES) | inhibition at 1 µM [1] [%] | activation at 1 µM (adrenergic α2C receptor [2]) [%] | inhibition at 1 µM (adrenergic α2C receptor [2]) [%] | σ [%] (sigma σ receptor) | inhibition at 1 µM [3] [%] | inhibition at 1 µM [4] [%] | inhibition at 1 µM (dopaminergic D2 receptor) [%] | α1 [%] (adrenergic α1 receptor) | inhibition at 1 µM [5] [%] | inhibition at 1 µM (adrenergic α2C receptor [6]) [%] | activation at 1 µM [7] [%] | inhibition at 1 µM [7] [%] | inhibition at 1 µM (dopaminergic D3 receptor) [%]
O=S(=O)(NCCCCN1CCN(c2noc3ccccc23)CC1)c1cc2ccc(Cl)cc2s1 [Compound 288, N-[4-[4-(1,2-Benzoxazol-3-yl)piperazin-1-yl]butyl]-6-chlorobenzothiophene-2-sulphonamide] | -14 | 1 | 13 | 45 | 95 | 98 | 103 | 94 | 86 | 109 | -2 | 92 | 102
O=S(=O)(NCCCCN1CCC(c2noc3cc(F)ccc23)CC1)c1ccc(Br)cc1 [Compound 298, 4-Bromo-N-[4-[4-(6-fluoro-1,2-benzoxazol-3-yl)piperidin-1-yl]butyl]benzenesulphonamide] | 35 | -4 | 39 | 68 | 100 | 98 | 99 | 103 | 67 | 98 | -3 | 98 | 98
O=S(=O)(NCCCN1CCC(c2noc3cc(F)ccc23)CC1)c1ccc2cn[nH]c2c1 [Compound 352, N-[3-[4-(6-Fluoro-1,2-benzoxazol-3-yl)piperidin-1-yl]propyl]-1H-indazole-6-sulphonamide] | 56 | -16 | 16 | 76 | 101 | 95 | 100 | 99 | 89 | 100 | -2 | 102 | 97
O=S(=O)(NCCCN1CCC(c2noc3cc(F)ccc23)CC1)c1ccc2cc(Cl)ccc2c1 [Compound 98, 6-Chloro-N-[3-[4-(6-fluoro-1,2-benzoxazol-3-yl)piperidin-1-yl]propyl]naphthalene-2-sulphonamide] | 54 | -1 | 16 |  | 102 | 98 | 101 |  | 80 | 108 | -2 | 92 | 104
O=S(=O)(NCCCCN1CCC(c2noc3cc(F)ccc23)CC1)c1cc2ccc(Cl)cc2s1 [Compound 314, 6-Chloro-N-[4-[4-(6-fluoro-1,2-benzoxazol-3-yl)piperidin-1-yl]butyl]benzothiophene-2-sulphonamide] | 50 | -2 | 30 | 49 | 102 | 100 | 99 | 100 | 75 | 108 | -3 | 95 | 100
O=S(=O)(NCCCCN1CCC(c2noc3cc(F)ccc23)CC1)c1csc2ccccc12 [Compound 313, N-[4-[4-(6-Fluoro-1,2-benzoxazol-3-yl)piperidin-1-yl]butyl]benzothiophene-3-sulphonamide] | 23 | -11 | 46 | 83 | 101 | 100 | 101 | 100 | 72 | 100 | -2 | 100 | 99
O=S(=O)(NCCCCN1CCN(c2noc3ccccc23)CC1)c1c[nH]c2ncccc12 [Compound 89, N-[4-[4-(1,2-Benzoxazol-3-yl)piperazin-1-yl]butyl]-1H-pyrrolo[2,3-b]pyridine-3-sulphonamide] | 2 | -10 | 7 | −1 | 99 | 94 | 89 | 98 | 71 | 98 | -2 | 91 | 95
O=S(=O)(NCCCCN1CCN(c2noc3ccccc23)CC1)c1ccc2cc(Cl)ccc2c1 [Compound 79, N-[4-[4-(1,2-Benzoxazol-3-yl)piperazin-1-yl]butyl]-6-chloro-naphthalene-2-sulphonamide] | 3 | 7 | 22 | 37 | 91 | 97 | 99 | 88 | 84 | 106 | -2 | 97 | 96
O=S(=O)(NCCCCN1CCC(c2noc3cc(F)ccc23)CC1)c1cc2ccccc2s1 [Compound 312, N-[4-[4-(6-Fluoro-1,2-benzoxazol-3-yl)piperidin-1-yl]butyl]benzothiophene-2-sulphonamide] | 35 | 61 | 39 | 71 | 99 | 98 | 99 | 100 | 86 | 92 | -2 | 97 | 97
O=S(=O)(NCCCCN1CCN(c2noc3ccccc23)CC1)c1cccc2ccccc12 [Compound 13, N-(4-(4-(1,2-Benzoxazol-3-yl)piperazin-1-yl)butyl)naphthalene-1-sulphonamide] | 7 | -7 | 18 | 87 | 100 | 96 | 99 | 102 | 89 | 99 | 1 | 95 | 92
O=S(=O)(NCCCCN1CCN(c2noc3ccccc23)CC1)c1ccc(-c2ccccc2)cc1 [Compound 283, N-[4-[4-(1,2-Benzoxazol-3-yl)piperazin-1-yl]butyl]-4-phenylbenzenesulphonamide] | 24 | 2 | 25 | 34 | 103 | 96 | 99 | 92 | 89 | 109 | -2 | 93 | 101
